In ChEMBL document CHEMBL3045069, “Antifeedant activity of quinones from Ventilago madaraspatana” (2001):

Legend:
Format in all cases: functional
[1] = tested on: Spodoptera litura; test: Antifeedant activity against Spodoptera litura in Ricinus communis leaves assessed as mean leaf area fed by dual choice leaf disc bioassay; set-up: concentration or dose not given beside the values
[2] = tested on: Spodoptera litura; test: Antifeedant activity against Spodoptera litura in Ricinus communis leaves assessed as mean leaf area fed at 1 ug/cm'2 by dual choice leaf disc bioassay (reference value: 53 +/- 2.44 to 53.6 +/- 2.61 cm'2)
[3] = tested on: Spodoptera litura; test: Antifeedant activity against Spodoptera litura in Ricinus communis leaves assessed as mean leaf area fed at 5 ug/cm'2 by dual choice leaf disc bioassay (reference value: 52.6 +/- 1.34 to 55.6 +/- 3.71 cm'2)
[4] = tested on: Spodoptera litura; test: Antifeedant activity against Spodoptera litura in Ricinus communis leaves assessed as mean leaf area fed at 10 ug/cm'2 by dual choice leaf disc bioassay (reference value: 52.8 +/- 2.50 to 53.6 +/- 4.76 cm'2)
[5] = tested on: Henosepilachna vigintioctopunctata; test: Antifeedant activity against Henosepilachna vigintioctopunctata in Solanum nigrum leaves assessed as mean leaf area fed by dual choice leaf disk bioassay; set-up: concentration or dose not given beside the values
[6] = tested on: Henosepilachna vigintioctopunctata; test: Antifeedant activity against Henosepilachna vigintioctopunctata in Solanum nigrum leaves assessed as mean leaf area fed at 1 ug/cm'2 by dual choice leaf disk bioassay (reference value: 0.75 +/- 0.06 to 0.92 +/- 0.05 cm'2)
[7] = tested on: Henosepilachna vigintioctopunctata; test: Antifeedant activity against Henosepilachna vigintioctopunctata in Solanum nigrum leaves assessed as mean leaf area fed at 5 ug/cm'2 by dual choice leaf disk bioassay (reference value: 0.74 +/- 0.02 to 0.91 +/- 0.01 cm'2)
[8] = tested on: Henosepilachna vigintioctopunctata; test: Antifeedant activity against Henosepilachna vigintioctopunctata in Solanum nigrum leaves assessed as mean leaf area fed at 10 ug/cm'2 by dual choice leaf disk bioassay (reference value: 0.78 +/- 0.04 to 0.99 +/- 0.17 cm'2)

SMILES	Activity [1]	Activity [2]	Activity [3]	Activity [4]	Activity [5]	Activity [6]	Activity [7]	Activity [8]
COc1c2c(c(OC)c3c1C(=O)C1=C(C3=O)[C@@H](C)O[C@@H](C)C1)OCO2 [VENTILOQUINONE B]	29%	33.8 cm2	22.5 cm2	11.6 cm2	32%	0.54 cm2	0.34 cm2	0.17 cm2
COc1cc(OC)c2c(c1OC)C(=O)C1=C(C2=O)[C@@H](C)O[C@@H](C)C1 [VENTILOQUINONE E]	25%	35.1 cm2	23.3 cm2	13.3 cm2	29%	0.58 cm2	0.39 cm2	0.21 cm2
C/C=C(\C)C(=O)O[C@H]1C[C@@H](OC(C)=O)[C@@]2(C(=O)OC)CO[C@H]3[C@@H](O)[C@@](C)([C@]45O[C@@]4(C)[C@H]4C[C@@H]5O[C@@H]5OC=C[C@@]54O)[C@H]4[C@]1(CO[C@]4(O)C(=O)OC)[C@@H]32 [AZADIRACTIN]	60%	20.3 cm2	13.5 cm2	5 cm2	56%	0.4 cm2	0.2 cm2	0.05 cm2
COc1cc(O)c2c(c1)C(=O)c1cc(C)cc(O)c1C2=O [PHYSCION]	30%	33.4 cm2	21.6 cm2	11.3 cm2	34%	0.52 cm2	0.32 cm2	0.15 cm2
COc1c2c(c(O)c3c1C(=O)c1coc(C)c1C3=O)OCO2 [VENTILONE B]	27%	34.9 cm2	23 cm2	13 cm2	31%	0.56 cm2	0.37 cm2	0.19 cm2
Cc1cc(O)c2c(c1)C(=O)c1cccc(O)c1C2=O [CHRYSOPHANOL]	20%	40.4 cm2	24 cm2	13.6 cm2	26%	0.61 cm2	0.43 cm2	0.25 cm2
COc1c2c(c(O)c3c1C(=O)C1=C(C[C@H](C)O[C@@H]1C)C3=O)OCO2 [VENTILOQUINONE A]	40%	25.2 cm2	19.8 cm2	7.2 cm2	47%	0.46 cm2	0.28 cm2	0.07 cm2
Cc1cc(O)c2c(c1)C(=O)c1cc(O)cc(O)c1C2=O [EMODIN]	31%	33.2 cm2	20.5 cm2	11 cm2	44%	0.48 cm2	0.3 cm2	0.13 cm2
